Measured values: US20070059788A1, “Method and apparatus for electrically detecting an adverse effect of a toxic substance on procaryotic cells” (priority 2005, published 2007)

Assays:
Format in all cases: cell-based
[1] = system: E. coli BL21 cells; assay: impedance (E′, E″) measurement of cells immobilized on an interdigit electrode chip
Procedure: After a suspension of E. coli BL21 cells (1×10^10 ells) was mixed with 1 ml of 1.5% agarose, 1 ul of the resulting mixture was laid and immobilized on the surface of a positive dielectrophoresis (“DEP”) 0 chip.
Subsequently, the cells-immobilized chip was soaked in 10 ml of 1 μM KCl solution and its initial dielectric permittivity (E′) and dielectric losses (E″) were measured. […] The chip was then taken out of the 10 ml of 1 μM KCl solution and washed with 1 μM KCl solution three times. After soaking the chip in 10 ml of 1 μM KCl solution, dielectric permittivity (E′) and dielectric losses (E″) were measured.
Control 2 is a case of treating only 1 μM KCl solution to the chip immobilized with E. coli cells, which represents the noise of prokaryotic cells themselves that varies with the passage of time.
In FIGS. 2A to 2C, Line b represents an initial impedance value measured after the cell immobilization, and Line a represents an impedance value measured after treating with a toxic substance or 1 μM KCl solution.

[2] = system: E. coli BL21 cells; assay: optical detection of cell membrane potential (Baclight Bacterial Membrane Potential Kit)
Procedure: (§1) The optical detection method was performed using a Baclight™ Bacterial Membrane Potential Kit (commercially available from by Molecular Probes Inc., U.S.A.) for verification.

[3] = system: E. coli BL21 cells; assay: colony counting of the cells-immobilized chip
Procedure: as §1

Row | Compound | reduction of impedance signal (E″) of the cell membrane ([1]; 5 μM CCCP, compared with the untreated control (FIG. 4C)) | change in E′ and E″ signals over the initial impedance value ([1]; 5 μM CCCP, same method as Example 1) | reduction of cell membrane potential ([2]; 5 μM CCCP, compared with untreated control (FIG. 5B)) | adverse effect by colony counting ([3]; 5 μM CCCP versus untreated control (FIG. 5A)) | reduction in the cell membrane's impedance (E′) signal ([1]; 20% ethanol (FIG. 2C)) | reduction in the cell membrane potential measured by the optical method ([2]; 20% ethanol, compared with untreated control (FIG. 6)) | adverse effect by colony counting ([3]; 20% ethanol)
1 | carbonyl cyanide m-chloropheoxyhydrazone [CCCP] | about 32% | significant reduction | 10% | difficult to measure an adverse effect | – | – | –
2 | CCO [ethanol] | – | – | – | – | about 36% | almost nothing | difficult to measure an adverse effect
